Assays:
[1] = test system: amputation wound; experiment: Example 4: treatment of an amputation wound; assay type: in vivo, human; details: 750 mg×3, prescribed May 24, 2012, before the test treatments
Procedure: If nothing else is mentioned herein below, the treatment preparation used in the examples below was prepared just before application by mixing one volume of a component containing aqueous NaOCl in an amount of 1-2% (by weight) with one volume of a component containing amino acids lys+Glu+Leu (1:1:1 relation and 0.7-0.8% total amino content by weight), TiO2 (0.04% by weight), NaCl (0.3-0.6% by weight), Na-CMC (medium viscosity; 3% by weight), and NaOH (added to adjust the pH to be 9.5-10.5 by weight). Medium viscosity of carboxymethyl cellulose is defined as 400-800 (mPas).
The components were mixed and the resulting mixture, i.e. the treatment preparation, was applied immediately (within seconds at the most one minute) to the treatment site, e.g. an ulcer. In this way there was provided that the mentioned chemical reaction forming halogenated amino acids occurs in contact with the treatment site. The resulting chemical reaction was allowed to proceed so as to separate dead tissue from healthy tissue as well as decomposing and/or destroying bacteria. The mixture in the form a solution was left within the treatment area, e.g. ulcer, for 5 minutes or less, wherein the reaction proceeds such that bubbles and a smell of chlorine appear and then disappear in the preparation. […]

[2] = test system: Staphylococcus; experiment: Example 2: bacterial cultivation, resistance; assay type: cell-based; details: bacterial cultivation from the leg ulcer

SMILES	effect of antibiotic on non-healing amputation wound [1]	resistance of cultivated Staphylococcus [2]
Cc1onc(-c2c(F)cccc2Cl)c1C(=O)N[C@@H]1C(=O)N2[C@@H]1SC(C)(C)[C@@H]2C(=O)O [Heracillin®]	did not improve their condition	
CC1(C)S[C@@H]2[C@H](NC(=O)COc3ccccc3)C(=O)N2[C@H]1C(=O)O [fenoximetylpenicillin]		resistant
Cc1onc(-c2c(F)cccc2Cl)c1C(=O)N[C@@H]1C(=O)N2[C@@H]1SC(C)(C)[C@@H]2C(=O)O [flukloxacillin]		resistant

— patent US9999605B2, “Preparation for treatment of a non-oral treatment site comprising an active chlorine compound and amino acids” (RLS GLOBAL AB, priority 2012, dated 2018)
